Key:
USP1 = USP1 (Homo sapiens, UniProt O94782); test: DUB biochemical assay (Ub-rhodamine cleavage); conditions: Ub-rhodamine substrate, DUB panel Fig. S2 A
Experimental: (§1) The assay was performed in a final volume of 6 µl in assay buffer containing 20 mM Tris buffer, pH 8, 0.03% bovine γ-globulin, 0.01% Triton X-100, and 1 mM glutathione. Nanoliter quantities of 10-point, threefold serial dilutions in DMSO were predispensed into 1,536 assay plates for a final top concentration between […] and subsequent half-log dilutions. 2× DUB (0.025 nM final concentration) was added and preincubated for 30 min at room temperature. 2× ubiquitin (Ub)-rhodamine (25 nM final concentration) was added to initiate the reaction. Fluorescence readings (excitation: 485 nm, emission: 535 nm) were acquired over 12 min (Envision reader). The slope of the data from each point was used to determine IC50.
(§2) For all assays, data were reported as percent inhibition compared with control wells. IC50 values were determined by curve fitting of the standard four-parameter logistic fitting algorithm included in the Activity Base software package IDBS XE Designer Model205. Data were fitted using the Levenburg–Marquardt algorithm.

USP10 = USP10 (Homo sapiens, UniProt Q14694); test: DUB biochemical assay (Ub-rhodamine cleavage); conditions: Ub-rhodamine substrate, DUB panel Fig. S2 A
Experimental: as §1, §2

USP11 = USP11 (Homo sapiens, UniProt P51784); test: DUB biochemical assay (Ub-rhodamine cleavage); conditions: Ub-rhodamine substrate, DUB panel Fig. S2 A
Experimental: as §1, §2

USP12 = USP12 (Homo sapiens, UniProt O75317); test: DUB biochemical assay (Ub-rhodamine cleavage); conditions: Ub-rhodamine substrate, DUB panel Fig. S2 A
Experimental: as §1, §2

USP13 = USP13 (Homo sapiens, UniProt Q92995); test: DUB biochemical assay (Ub-rhodamine cleavage); conditions: Ub-rhodamine substrate, DUB panel Fig. S2 A
Experimental: as §1, §2

USP15 = USP15 (Homo sapiens, UniProt Q9Y4E8); test: DUB biochemical assay (Ub-rhodamine cleavage); conditions: Ub-rhodamine substrate, DUB panel Fig. S2 A
Experimental: as §1, §2

USP18 = USP18 (Homo sapiens, UniProt Q9UMW8); test: DUB biochemical assay (Ub-rhodamine cleavage); conditions: Ub-rhodamine substrate, DUB panel Fig. S2 A
Experimental: as §1, §2

USP2 = USP2 (Homo sapiens, UniProt O75604); test: DUB biochemical assay (Ub-rhodamine cleavage); conditions: Ub-rhodamine substrate, DUB panel Fig. S2 A
Experimental: as §1, §2

USP22 = USP22 (Homo sapiens, UniProt Q9UPT9); test: DUB biochemical assay (Ub-rhodamine cleavage); conditions: Ub-rhodamine substrate, DUB panel Fig. S2 A
Experimental: as §1, §2

USP24 = USP24 (Homo sapiens, UniProt Q9UPU5); test: DUB biochemical assay (Ub-rhodamine cleavage); conditions: Ub-rhodamine substrate, DUB panel Fig. S2 A
Experimental: as §1, §2

USP25 = USP25 (Homo sapiens, UniProt Q9UHP3); test: DUB biochemical assay (Ub-rhodamine cleavage); conditions: Ub-rhodamine substrate, DUB panel Fig. S2 A
Experimental: as §1, §2

USP28 = USP28 (Homo sapiens, UniProt Q96RU2); test: DUB biochemical assay (Ub-rhodamine cleavage); conditions: Ub-rhodamine substrate, DUB panel Fig. S2 A
Experimental: as §1, §2

USP33 = USP33 (Homo sapiens, UniProt Q8TEY7); test: DUB biochemical assay (Ub-rhodamine cleavage); conditions: Ub-rhodamine substrate, DUB panel Fig. S2 A
Experimental: as §1, §2

USP36 = USP36 (Homo sapiens, UniProt Q9P275); test: DUB biochemical assay (Ub-rhodamine cleavage); conditions: Ub-rhodamine substrate, DUB panel Fig. S2 A
Experimental: as §1, §2

USP37 = USP37 (Homo sapiens, UniProt Q86T82); test: DUB biochemical assay (Ub-rhodamine cleavage); conditions: Ub-rhodamine substrate, DUB panel Fig. S2 A
Experimental: as §1, §2

USP4 = USP4 (Homo sapiens, UniProt Q13107); test: DUB biochemical assay (Ub-rhodamine cleavage); conditions: Ub-rhodamine substrate, DUB panel Fig. S2 A
Experimental: as §1, §2

USP47 = USP47 (Homo sapiens, UniProt Q96K76); test: DUB biochemical assay (Ub-rhodamine cleavage); conditions: Ub-rhodamine substrate, DUB panel Fig. S2 A
Experimental: as §1, §2

USP5 = USP5 (Homo sapiens, UniProt P45974); test: DUB biochemical assay (Ub-rhodamine cleavage); conditions: Ub-rhodamine substrate, DUB panel Fig. S2 A
Experimental: as §1, §2

USP7 = USP7 (Homo sapiens, UniProt Q93009); test: DUB biochemical assay (Ub-rhodamine cleavage); conditions: Ub-rhodamine substrate, DUB panel Fig. S2 A
Experimental: as §1, §2

USP8 = USP8 (Homo sapiens, UniProt P40818); test: DUB biochemical assay (Ub-rhodamine cleavage); conditions: Ub-rhodamine substrate, DUB panel Fig. S2 A
Experimental: as §1, §2

CEP55 = test: MSD ELISA assay for CEP55 reduction in BxPC3 cells; format: cell-based; conditions: Homo sapiens, BXPC-3, BxPC3 pancreatic cancer cells, 6 h exposure, read-out: IC50 for modulation (reduction) of CEP55 expression
Experimental: BxPC3 cells were seeded in 96-well plates and exposed to FT709 (20 µM top concentration, 1:2 serial dilutions) for 6 h. Cell lysates were prepared in RIPA buffer and stored at −80°C until analysis. Samples were analyzed by an MSD ELISA assay (Pacific Biolabs) using a CEP55 antibody (Novux; 1:500 dilution in PBS) captured overnight at 4°C, 30 µl lysates per well, 30 µl of CEP55 antibody (CST; 81693) diluted 1:2,000 in 1% blocker A/PBS and 30 µl per well of a 1:4,000 diluted goat anti-rabbit sulfo-tag, 1% blocker A/PBS. Plates were read on a MSD Sector Imager 2400. Results were transformed as percentage DMSO controls and curves fitted using a nonlinear regression to determine the IC50. Results presented are based on duplicate values.

ZNF598 = test: Immunoblot of ZNF598 in FT709-treated HCT116 cells; format: cell-based; conditions: 10 µM, 4 or 24 h
Experimental: (§3) Cultured cells were lysed for 10 min at 4°C in RIPA buffer (10 mM Tris-HCl, pH 7.5, 150 mM NaCl, 1% Triton X-100, 0.1% SDS, and 1% sodium deoxycholate) supplemented with mammalian protease inhibitor cocktail (Sigma-Aldrich). Proteins were resolved using SDS-PAGE (Invitrogen NuPage gel 4–12%), transferred to nitrocellulose membrane, blocked in 5% fat-free milk or 5% bovine serum albumin in TBS supplemented with Tween-20, and probed with primary antibodies overnight. Visualization and quantification of Western blots were performed using IRdye 800CW and 680LT coupled secondary antibodies and an Odyssey infrared scanner (LI-COR Biosciences).

HCT116 cells = test: SILAC-based proteome analysis of FT709-treated HCT116 cells; format: cell-based; conditions: 10 µM, 24 h
Experimental: HCT116 cells were grown in SILAC DMEM supplemented with 10% dialyzed FBS (Dundee Cell Products) at 37°C and 5% CO2. To generate light, medium, and heavy stable isotope-labeled cells, arginine- and lysine-free DMEM medium was supplemented with 200 mg/liter L-proline and either L-lysine (Lys0) together with L-arginine (Arg0; light), L-lysine-^2H4 (Lys4) with L-arginine-U-^13C6 (Arg6; medium), or L-lysine-U-^13C6-^15N2 (Lys8) with L-arginine-U-^13C6-^15N4 (Arg10; heavy) at final concentrations of 84 mg/liter for the arginine and 146 mg/liter for the lysine until fully metabolically labeled. […] Relative protein concentrations of the lysates were determined using a bicinchoninic acid assay (Thermo Fisher Scientific), and light-, medium-, and heavy-labeled lysates were combined in a 1:1:1 ratio.
Protein extracts (1.2–1.5 mg) containing SDS were reduced with 5 mM dithiothreitol, alkylated with 20 mM iodoacetamide, and then subjected to methanol/chloroform extraction. […] Peptide fractions were analyzed in technical replicates by nano-UPLC-MS/MS using a Dionex Ultimate 3000 nano UPLC with EASY spray column (75 µm × 500 mm, 2 µm particle size; Thermo Fisher Scientific) with a 60-min gradient of 2% acetonitrile/0.1% formic acid/5% DMSO to 35% acetonitrile/0.1% formic acid/5% DMSO at a flow rate of ∼250 nl/min. […]

[1] = system: HEK293 Flp-In T-Rex GFP-P2A-(KAAA)21-P2A-RFP WT cells; test: Fluorescent ribosomal stalling reporter, FACS RFP:GFP ratio; format: cell-based; conditions: 10 µM for 72 h
From the text: The HEK293 cells used in this study (HEK293-Flp-In TREX GFP-P2A-[K^AAA]21 -P2A-RFP) have been engineered to express a reporter system for terminal ribosomal stalling ([Juszkiewicz and Hegde, 2017]). The reporter cassette contains GFP (N-terminal) and RFP (C-terminal) separated by a FLAG-tagged stalling reporter (SR) incorporating a polyA stretch of twenty-one codons (K^AAA)21 (Fig. 5 B). This is flanked by viral P2A sequences, at which ribosomes skip formation of a peptide bond, without interrupting translation elongation. Consequently, unimpaired translation generates 3 proteins (GFP, FLAG-SR, RFP) in equal amounts. Stalling at the FLAG-SR aborts translation before RFP synthesis, leading to a substoichiometric RFP:GFP ratio. Failure to effectively respond to stalled ribosomes allows eventual read-through and a consequent rise in the RFP:GFP ratio that can be assessed by fluorescence-activated cell sorting (Fig. 5 B, schematic diagram; [Juszkiewicz and Hegde, 2017]). […] We also analyzed three of the cell populations treated with individual gRNAs as represented in Fig. 5 A that show varying effectiveness for USP9X depletion. […] We propose that USP9X inhibition may promote read-through by a combined effect on each of these RING E3 ligases linked to the ribosomal quality control pathway. […]

ZNF598, MKRN1 and MKRN2 = test: Immunoblot of ZNF598 and Makorins in FT709-treated (KAAA)21 WT cells; format: cell-based; conditions: (KAAA)21 WT HEK293 cells, indicated concentrations for 48 h
Experimental: as §3

ZNF598 and MKRN2 = test: Immunoblot of FT709 responsive markers in A549 and U2OS cells; format: cell-based; conditions: 10 µM
Experimental: as §3

Chain of USP36 (Q9P275 whole entry, species assumed): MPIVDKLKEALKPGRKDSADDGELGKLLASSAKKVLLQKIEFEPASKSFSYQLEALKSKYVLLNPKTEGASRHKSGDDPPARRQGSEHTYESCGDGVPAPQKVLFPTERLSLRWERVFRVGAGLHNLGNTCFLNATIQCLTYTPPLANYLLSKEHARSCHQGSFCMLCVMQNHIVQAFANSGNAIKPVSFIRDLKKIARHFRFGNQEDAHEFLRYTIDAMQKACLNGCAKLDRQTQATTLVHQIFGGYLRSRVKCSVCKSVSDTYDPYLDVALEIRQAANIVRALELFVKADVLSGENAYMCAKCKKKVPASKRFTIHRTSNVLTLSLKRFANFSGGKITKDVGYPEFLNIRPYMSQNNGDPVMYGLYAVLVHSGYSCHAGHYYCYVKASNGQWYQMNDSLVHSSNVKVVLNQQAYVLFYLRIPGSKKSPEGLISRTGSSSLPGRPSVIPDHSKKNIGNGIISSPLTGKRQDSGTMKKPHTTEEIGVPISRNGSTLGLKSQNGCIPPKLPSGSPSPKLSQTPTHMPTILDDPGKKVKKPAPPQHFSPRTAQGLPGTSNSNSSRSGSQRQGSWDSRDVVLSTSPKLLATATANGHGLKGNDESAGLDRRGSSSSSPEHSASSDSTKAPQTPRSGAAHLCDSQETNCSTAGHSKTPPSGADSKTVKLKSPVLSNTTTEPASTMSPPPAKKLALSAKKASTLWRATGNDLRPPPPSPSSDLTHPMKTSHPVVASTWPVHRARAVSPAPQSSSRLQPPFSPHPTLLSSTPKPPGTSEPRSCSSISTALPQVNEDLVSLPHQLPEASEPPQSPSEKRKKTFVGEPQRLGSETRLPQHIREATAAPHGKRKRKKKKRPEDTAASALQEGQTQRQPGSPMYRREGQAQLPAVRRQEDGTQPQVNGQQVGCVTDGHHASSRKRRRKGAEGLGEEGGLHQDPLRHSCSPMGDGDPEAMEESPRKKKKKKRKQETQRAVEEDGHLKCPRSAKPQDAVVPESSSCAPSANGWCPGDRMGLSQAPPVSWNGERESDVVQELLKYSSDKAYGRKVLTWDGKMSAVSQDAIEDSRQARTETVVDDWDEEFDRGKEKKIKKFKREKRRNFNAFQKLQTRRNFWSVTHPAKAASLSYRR
Chain of USP33 (Q8TEY7 whole entry, species assumed): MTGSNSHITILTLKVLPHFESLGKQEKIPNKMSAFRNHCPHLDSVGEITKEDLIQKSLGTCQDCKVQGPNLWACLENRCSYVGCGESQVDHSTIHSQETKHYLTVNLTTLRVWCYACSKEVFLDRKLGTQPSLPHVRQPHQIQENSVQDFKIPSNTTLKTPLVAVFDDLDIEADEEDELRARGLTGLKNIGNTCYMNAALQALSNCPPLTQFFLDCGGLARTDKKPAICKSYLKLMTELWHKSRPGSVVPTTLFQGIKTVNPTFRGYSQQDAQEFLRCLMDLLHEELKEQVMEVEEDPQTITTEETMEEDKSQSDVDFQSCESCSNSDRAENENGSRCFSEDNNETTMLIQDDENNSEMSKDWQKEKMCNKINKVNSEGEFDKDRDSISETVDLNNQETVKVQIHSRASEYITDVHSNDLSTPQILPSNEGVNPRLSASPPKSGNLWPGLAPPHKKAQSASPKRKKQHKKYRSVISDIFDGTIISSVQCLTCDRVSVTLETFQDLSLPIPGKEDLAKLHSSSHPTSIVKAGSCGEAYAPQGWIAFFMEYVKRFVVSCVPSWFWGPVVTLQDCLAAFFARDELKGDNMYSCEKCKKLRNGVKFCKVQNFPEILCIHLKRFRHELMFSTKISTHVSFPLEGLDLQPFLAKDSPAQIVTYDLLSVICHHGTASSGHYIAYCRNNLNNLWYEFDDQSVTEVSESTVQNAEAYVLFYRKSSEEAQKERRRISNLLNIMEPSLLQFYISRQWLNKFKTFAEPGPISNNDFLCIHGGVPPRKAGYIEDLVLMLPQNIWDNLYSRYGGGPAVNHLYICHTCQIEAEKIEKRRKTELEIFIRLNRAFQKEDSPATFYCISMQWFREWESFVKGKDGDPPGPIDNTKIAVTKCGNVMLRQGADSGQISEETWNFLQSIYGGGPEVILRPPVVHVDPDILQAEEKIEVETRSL
Chain of USP37 (Q86T82 whole entry, species assumed): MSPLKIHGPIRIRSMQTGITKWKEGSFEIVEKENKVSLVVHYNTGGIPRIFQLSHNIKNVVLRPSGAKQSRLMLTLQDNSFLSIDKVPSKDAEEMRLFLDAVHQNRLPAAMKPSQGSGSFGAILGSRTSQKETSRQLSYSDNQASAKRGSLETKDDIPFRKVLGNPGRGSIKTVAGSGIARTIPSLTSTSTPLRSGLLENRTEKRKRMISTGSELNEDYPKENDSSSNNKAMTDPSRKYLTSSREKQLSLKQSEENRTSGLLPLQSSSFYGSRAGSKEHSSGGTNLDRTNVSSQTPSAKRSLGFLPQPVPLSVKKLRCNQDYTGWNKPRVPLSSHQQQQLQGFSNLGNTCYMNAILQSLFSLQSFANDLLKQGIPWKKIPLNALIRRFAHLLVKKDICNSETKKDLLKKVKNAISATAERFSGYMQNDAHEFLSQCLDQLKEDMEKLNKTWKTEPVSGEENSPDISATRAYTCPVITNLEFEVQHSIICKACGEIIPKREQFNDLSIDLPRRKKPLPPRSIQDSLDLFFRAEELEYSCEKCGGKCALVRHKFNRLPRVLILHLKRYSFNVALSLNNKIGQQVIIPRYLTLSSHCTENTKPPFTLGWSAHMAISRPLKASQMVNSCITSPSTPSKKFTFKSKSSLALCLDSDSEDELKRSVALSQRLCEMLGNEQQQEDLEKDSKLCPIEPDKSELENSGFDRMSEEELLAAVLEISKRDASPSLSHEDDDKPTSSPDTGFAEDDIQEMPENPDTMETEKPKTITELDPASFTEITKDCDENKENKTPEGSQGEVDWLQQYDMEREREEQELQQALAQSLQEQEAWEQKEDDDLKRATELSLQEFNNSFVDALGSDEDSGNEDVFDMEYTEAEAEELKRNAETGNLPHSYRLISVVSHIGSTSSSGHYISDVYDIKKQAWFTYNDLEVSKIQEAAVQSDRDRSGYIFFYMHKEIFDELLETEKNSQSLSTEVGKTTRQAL
Chain of USP8 (P40818 whole entry, species assumed): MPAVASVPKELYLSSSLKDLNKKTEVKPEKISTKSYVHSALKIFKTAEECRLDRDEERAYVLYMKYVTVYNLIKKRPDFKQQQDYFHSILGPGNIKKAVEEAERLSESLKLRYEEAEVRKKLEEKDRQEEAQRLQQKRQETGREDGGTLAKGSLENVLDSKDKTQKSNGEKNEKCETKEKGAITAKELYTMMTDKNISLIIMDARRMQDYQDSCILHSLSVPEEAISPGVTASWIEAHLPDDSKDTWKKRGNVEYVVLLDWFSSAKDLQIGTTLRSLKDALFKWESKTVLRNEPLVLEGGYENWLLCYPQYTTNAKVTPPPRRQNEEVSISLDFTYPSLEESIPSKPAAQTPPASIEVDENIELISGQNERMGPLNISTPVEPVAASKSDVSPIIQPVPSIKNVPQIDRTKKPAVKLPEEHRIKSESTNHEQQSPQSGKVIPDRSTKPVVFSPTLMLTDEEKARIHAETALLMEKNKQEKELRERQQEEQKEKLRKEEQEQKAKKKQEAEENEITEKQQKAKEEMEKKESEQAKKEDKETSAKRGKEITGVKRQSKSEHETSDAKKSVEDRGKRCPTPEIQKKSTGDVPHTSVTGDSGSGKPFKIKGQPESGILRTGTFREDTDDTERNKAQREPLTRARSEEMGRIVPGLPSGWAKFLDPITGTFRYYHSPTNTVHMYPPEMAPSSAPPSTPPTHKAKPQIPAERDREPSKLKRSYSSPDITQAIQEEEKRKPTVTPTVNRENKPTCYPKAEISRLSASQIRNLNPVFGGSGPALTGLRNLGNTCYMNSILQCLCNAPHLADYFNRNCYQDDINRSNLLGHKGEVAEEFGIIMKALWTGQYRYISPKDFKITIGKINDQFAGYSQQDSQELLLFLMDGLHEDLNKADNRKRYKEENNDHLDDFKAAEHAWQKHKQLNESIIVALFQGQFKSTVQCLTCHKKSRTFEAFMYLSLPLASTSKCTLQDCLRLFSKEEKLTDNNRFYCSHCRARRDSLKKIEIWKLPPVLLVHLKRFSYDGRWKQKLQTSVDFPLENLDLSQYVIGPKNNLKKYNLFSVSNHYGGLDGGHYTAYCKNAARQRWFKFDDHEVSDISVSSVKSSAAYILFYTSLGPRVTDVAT
Chain of USP10 (Q14694 whole entry): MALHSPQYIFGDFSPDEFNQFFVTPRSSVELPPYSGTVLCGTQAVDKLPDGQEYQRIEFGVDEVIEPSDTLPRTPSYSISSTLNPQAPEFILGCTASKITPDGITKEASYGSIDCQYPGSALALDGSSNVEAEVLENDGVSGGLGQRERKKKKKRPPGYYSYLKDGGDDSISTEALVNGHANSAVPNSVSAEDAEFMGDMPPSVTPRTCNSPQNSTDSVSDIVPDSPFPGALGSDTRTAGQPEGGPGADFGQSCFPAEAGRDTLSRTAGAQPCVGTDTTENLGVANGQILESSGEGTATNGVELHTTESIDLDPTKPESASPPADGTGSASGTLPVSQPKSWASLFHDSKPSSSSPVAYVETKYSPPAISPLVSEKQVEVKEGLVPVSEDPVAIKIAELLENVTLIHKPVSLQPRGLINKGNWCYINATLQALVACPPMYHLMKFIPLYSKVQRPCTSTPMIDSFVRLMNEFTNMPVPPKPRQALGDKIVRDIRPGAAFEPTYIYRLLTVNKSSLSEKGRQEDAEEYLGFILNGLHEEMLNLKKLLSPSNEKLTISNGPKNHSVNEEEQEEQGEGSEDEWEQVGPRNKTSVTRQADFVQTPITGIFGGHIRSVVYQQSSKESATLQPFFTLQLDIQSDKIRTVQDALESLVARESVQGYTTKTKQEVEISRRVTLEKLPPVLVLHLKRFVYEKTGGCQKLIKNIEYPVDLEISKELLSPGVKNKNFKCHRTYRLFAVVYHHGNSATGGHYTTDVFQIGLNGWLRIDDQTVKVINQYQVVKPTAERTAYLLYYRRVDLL

Cc1nc2c(C(O)C(=O)N3CC4=C(C3)CN(S(=O)(=O)c3cnc5c(c3)OCCO5)C4)cccc2o1 (centres unmarked) [FT709]
IC50 (USP1): > 25.8 µM | IC50 (USP10): > 33.3 µM | IC50 (USP11): > 33.3 µM | IC50 (USP12): > 33.3 µM | IC50 (USP13): > 26.7 µM | IC50 (USP15): > 26.7 µM | IC50 (USP18): > 27.9 µM | IC50 (USP2): > 26.7 µM | IC50 (USP22): > 26.7 µM | IC50 (USP24): > 26.7 µM | IC50 (USP25): > 26.7 µM | IC50 (USP28): > 26.7 µM | IC50 (USP33): > 26.7 µM | IC50 (USP36): > 26.7 µM | IC50 (USP37): > 33.3 µM | IC50 (USP4): > 33.3 µM | IC50 (USP47): > 33.3 µM | IC50 (USP5): > 33.3 µM | IC50 (USP7): > 25.8 µM | IC50 (USP8): > 25 µM | IC50 (CEP55): 0.131 µM | ZNF598 protein level (ZNF598): reduction of ZNF598 | Protein abundance change in SILAC proteomic datasets (HCT116 cells): de-enrichment of ZNF598 and MKRN2 | polyA read-through (RFP:GFP ratio) [1]: recapitulate polyA read-through | ZNF598, MKRN1 and MKRN2 protein levels (ZNF598, MKRN1 and MKRN2): smaller reduction in ZNF598 levels but was again accompanied by parallel reductions in MKRN1 and 2 | FT709-dependent loss of ZNF598 versus MKRN2 (ZNF598 and MKRN2): loss of ZNF598 is minor compared with MKRN2

From paper PMC7849821, “The deubiquitylase USP9X controls ribosomal stalling” (The Journal of Cell Biology, 2021)
